In ChEMBL document CHEMBL3853353, “Identification and optimization of a new series of anti-tubercular quinazolinones” (Bioorg Med Chem Lett, 2016):
Converted amounts (≈) assume the structure as drawn.

Test system: Mycobacterium tuberculosis
Test: Ratio of MIC80 for Mycobacterium tuberculosis H37Rv in presence of 25% human serum to MIC80 for Mycobacterium tuberculosis H37Rv
Format: functional
Conditions: not given

SMILES	Ratio
COc1ccc(-c2ccc(CCNc3nc4cc(Cl)ccc4c(=O)n3C)cc2)cc1	200
COc1ccc(CCNc2nc3cc(C)ccc3c(=O)n2C)cc1	>10
Cn1c(NCCc2ccc(-n3cc(Cl)cn3)cc2)nc2cc(Cl)ccc2c1=O	8
Cn1c(NCCc2ccc(-c3ccc(Cl)cn3)cc2)nc2cc(Cl)ccc2c1=O	30
Cn1c(NCCc2ccc(N3CCOCC3)cc2)nc2cc(Cl)ccc2c1=O	8

Test system: not listed separately
Test: Lipophilicity, log P of compound
Conditions: octanol/water

SMILES	logP
COc1ccc(-c2ccc(CCNc3nc4cc(Cl)ccc4c(=O)n3C)cc2)cc1	5.13
Cn1c(NCCc2ccc(-n3cc(Cl)cn3)cc2)nc2cc(Cl)ccc2c1=O	4.67
Cn1c(NCCc2ccc(-c3ccc(Cl)cn3)cc2)nc2cc(Cl)ccc2c1=O	5.04

Test system: not listed separately
Test: Permeability in human Caco2 cells
Conditions: caco-2

SMILES	permeability
COc1ccc(-c2ccc(CCNc3nc4cc(Cl)ccc4c(=O)n3C)cc2)cc1	Permeable
COc1ccc(CCNc2nc3cc(C)ccc3c(=O)n2C)cc1	Permeable
Cn1c(NCCc2ccc(-n3cc(Cl)cn3)cc2)nc2cc(Cl)ccc2c1=O	Permeable
Cn1c(NCCc2ccc(-c3ccc(Cl)cn3)cc2)nc2cc(Cl)ccc2c1=O	Permeable
Cn1c(NCCc2ccc(N3CCOCC3)cc2)nc2cc(Cl)ccc2c1=O	Permeable

Biological target: T1, Cytochrome P450 3A4 (Homo sapiens, UniProt P08684)
T1 sequence (P08684 whole entry): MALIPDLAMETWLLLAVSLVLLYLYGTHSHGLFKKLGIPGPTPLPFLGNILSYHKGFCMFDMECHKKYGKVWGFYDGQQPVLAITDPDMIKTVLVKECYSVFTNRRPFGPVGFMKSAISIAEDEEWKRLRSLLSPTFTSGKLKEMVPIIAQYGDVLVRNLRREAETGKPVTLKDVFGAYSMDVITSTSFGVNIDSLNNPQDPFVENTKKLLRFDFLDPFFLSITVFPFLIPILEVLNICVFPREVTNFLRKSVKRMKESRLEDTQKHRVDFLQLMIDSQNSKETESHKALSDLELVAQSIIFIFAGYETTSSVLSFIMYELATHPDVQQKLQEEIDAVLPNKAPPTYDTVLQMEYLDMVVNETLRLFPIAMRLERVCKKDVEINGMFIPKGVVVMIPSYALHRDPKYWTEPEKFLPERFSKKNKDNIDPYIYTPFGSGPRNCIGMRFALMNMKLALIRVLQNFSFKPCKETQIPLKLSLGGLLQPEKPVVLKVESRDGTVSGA
Test: Inhibition of CYP3A4 in human liver microsomes assessed as 6-beta-hydroxytestosterone metabolite formation using testosterone as substrate incubated for 30 mins by HPLC-MS method
Conditions: not given

SMILES	IC50
COc1ccc(-c2ccc(CCNc3nc4cc(Cl)ccc4c(=O)n3C)cc2)cc1	7.9 µM
COc1ccc(CCNc2nc3cc(C)ccc3c(=O)n2C)cc1	4.8 µM
Cn1c(NCCc2ccc(-c3ccc(Cl)cn3)cc2)nc2cc(Cl)ccc2c1=O	8.4 µM
Cn1c(NCCc2ccc(N3CCOCC3)cc2)nc2cc(Cl)ccc2c1=O	11 µM

Test system: Mycobacterium tuberculosis
Test: Antimycobacterial activity against Mycobacterium tuberculosis H37Rv incubated for 5 days by Bactiter-Glo assay
Format: functional
Conditions: 120 h

SMILES	MIC80
COc1ccc(-c2ccc(CCNc3nc4cc(Cl)ccc4c(=O)n3C)cc2)cc1	0.007 µM (≈ 2.94 ng/mL)
COc1ccc(CCNc2nc3cc(C)ccc3c(=O)n2C)cc1	0.01 µM (≈ 3.23 ng/mL)
Cn1c(NCCc2ccc(-n3cc(Cl)cn3)cc2)nc2cc(Cl)ccc2c1=O	0.01 µM (≈ 4.14 ng/mL)
Cn1c(NCCc2ccc(-c3ccc(Cl)cn3)cc2)nc2cc(Cl)ccc2c1=O	0.002 µM (≈ 0.851 ng/mL)
Cn1c(NCCc2ccc(N3CCOCC3)cc2)nc2cc(Cl)ccc2c1=O	0.33 µM (≈ 132 ng/mL)

Test system: Mycobacterium tuberculosis
Test: Antimycobacterial activity against GFP-tagged Mycobacterium tuberculosis H37Rv infected in mouse RAW264.7 cells incubated for 4 days by Mask blue/Hoechst/FITC staining based fluorescence microscopic analysis
Format: functional
Conditions: 96 h

SMILES	MIC80
Cn1c(NCCc2ccc(-c3ccc(Cl)cn3)cc2)nc2cc(Cl)ccc2c1=O	0.063 µM (≈ 26.8 ng/mL)

Test system: Mycobacterium tuberculosis
Test: Antimycobacterial activity against Mycobacterium tuberculosis H37Rv incubated for 5 days in presence of 25% human serum by Bactiter-Glo assay
Format: functional
Conditions: 120 h

SMILES	MIC80
COc1ccc(-c2ccc(CCNc3nc4cc(Cl)ccc4c(=O)n3C)cc2)cc1	1.47 µM
Cn1c(NCCc2ccc(-n3cc(Cl)cn3)cc2)nc2cc(Cl)ccc2c1=O	0.86 µM
Cn1c(NCCc2ccc(-c3ccc(Cl)cn3)cc2)nc2cc(Cl)ccc2c1=O	0.25 µM
Cn1c(NCCc2ccc(N3CCOCC3)cc2)nc2cc(Cl)ccc2c1=O	> 10 µM

Test system: not listed separately
Test: Aqueous equilibrium solubility of compound in pH 7.4 solution at 20 degC
Conditions: aqueous pH 7.4 solution

SMILES	solubility thermodynamic
COc1ccc(-c2ccc(CCNc3nc4cc(Cl)ccc4c(=O)n3C)cc2)cc1	< 1 µg/mL
COc1ccc(CCNc2nc3cc(C)ccc3c(=O)n2C)cc1	< 1 µg/mL
Cn1c(NCCc2ccc(-n3cc(Cl)cn3)cc2)nc2cc(Cl)ccc2c1=O	< 1 µg/mL
Cn1c(NCCc2ccc(-c3ccc(Cl)cn3)cc2)nc2cc(Cl)ccc2c1=O	< 1 µg/mL
Cn1c(NCCc2ccc(N3CCOCC3)cc2)nc2cc(Cl)ccc2c1=O	8 µg/mL (≈ 20.1 µM)

Test system: not listed separately
Test: Cytotoxicity against human HepG2 cells assessed as reduction in cell viability after 40 hrs by Celltiter-Glo assay
Conditions: HepG2 cells

SMILES	IC50 at 40 h
COc1ccc(-c2ccc(CCNc3nc4cc(Cl)ccc4c(=O)n3C)cc2)cc1	> 30 µM
COc1ccc(CCNc2nc3cc(C)ccc3c(=O)n2C)cc1	> 30 µM
Cn1c(NCCc2ccc(-n3cc(Cl)cn3)cc2)nc2cc(Cl)ccc2c1=O	21.6 µM
Cn1c(NCCc2ccc(-c3ccc(Cl)cn3)cc2)nc2cc(Cl)ccc2c1=O	> 30 µM
Cn1c(NCCc2ccc(N3CCOCC3)cc2)nc2cc(Cl)ccc2c1=O	> 30 µM

Biological target: T1, Cytochrome P450 3A4
Test: Inhibition of CYP3A4 in human liver microsomes assessed as 1'-hydroxymidazolam metabolite formation using midazolam as substrate incubated for 10 mins by HPLC-MS method
Conditions: not given

SMILES	IC50
COc1ccc(-c2ccc(CCNc3nc4cc(Cl)ccc4c(=O)n3C)cc2)cc1	8 µM
COc1ccc(CCNc2nc3cc(C)ccc3c(=O)n2C)cc1	< 1 µM
Cn1c(NCCc2ccc(-n3cc(Cl)cn3)cc2)nc2cc(Cl)ccc2c1=O	16 µM
Cn1c(NCCc2ccc(-c3ccc(Cl)cn3)cc2)nc2cc(Cl)ccc2c1=O	> 30 µM
Cn1c(NCCc2ccc(N3CCOCC3)cc2)nc2cc(Cl)ccc2c1=O	11 µM

Test system: not listed separately
Test: Aqueous equilibrium solubility of compound in pH 1 solution at 20 degC
Conditions: aqueous pH 1 solution

SMILES	solubility thermodynamic
COc1ccc(-c2ccc(CCNc3nc4cc(Cl)ccc4c(=O)n3C)cc2)cc1	26 µg/mL (≈ 61.9 µM)
COc1ccc(CCNc2nc3cc(C)ccc3c(=O)n2C)cc1	221 µg/mL (≈ 683 µM)
Cn1c(NCCc2ccc(-n3cc(Cl)cn3)cc2)nc2cc(Cl)ccc2c1=O	< 1 µg/mL
Cn1c(NCCc2ccc(-c3ccc(Cl)cn3)cc2)nc2cc(Cl)ccc2c1=O	21 µg/mL (≈ 49.4 µM)
Cn1c(NCCc2ccc(N3CCOCC3)cc2)nc2cc(Cl)ccc2c1=O	1090 µg/mL (≈ 2740 µM)
